Measured values published in US11192900B2, “Substituted 1,6-dihydropyridinones and 1,2-dihydroisoquinolinones as bet inhibitors” (NUVATION BIO INC., priority 2018, dated 2021).

Target: BRD4-2 (Homo sapiens (Human), UniProt O60885)
Assay: Bromodomain and Extraterminal Domain (BET) Binding Assay
Conditions: Table 3; read-out: BRD4-2 IC50
Protocol: The bromodomain binding assays were performed by Reaction Biology Corp., Malvern, Pa., USA (www.reactionbiology.com). The BET binding assays were conducted in 384 well microplates in assay buffer (50 mM HEPES-HCl, pH 7.5, 100 mM NaCl, 1 mg/ml BSA, 0.05% CHAPS, and 0.5% DMSO) with compounds added as DMSO stocks at a single concentration or with 10-point dose response titrations. BET protein or assay buffer were delivered to the appropriate wells of the microplate. Test compound was then delivered by acoustic technology via a Labcyte Echo550 liquid handler. The microplate was centrifuged for 5 min and pre-incubated for 30 min at RT with gentle shaking. The ligand (histone H4 peptide (1-21) K5/8/12/16Ac-biotin) was delivered and the microplate was again centrifuged for 5 min and allowed to incubate for 30 min at RT with gentle shaking. Donor beads were then added in the absence of light and the microplate was centrifuged and gently shaken. After 5 min, acceptor beads were added in the absence of light and the microplate was centrifuged and gently shakenin the dark for 60 min. The microplate was read using a Perkin Elmer EnSpire Alpha plate reader (λEx/λEm=680/520-620 nm). Percent inhibition was calculated relative to positive and negative controls on a per plate basis. For titration experiments, IC50 values were determined by fitting the percent inhibition versus compound concentration.

Structure (SMILES)	IC50
C=CC(=O)Nc1ccc(Oc2ccc(F)cc2)c(-c2cn(C)c(=O)c3ccccc23)c1 [Compound 26, N-(4-(4-fluorophenoxy)-3-(2-methyl-1-oxo-1,2-dihydroisoquinolin-4-yl)phenyl)acrylamide]	281 nM
C=CC(=O)Nc1ccc(Oc2ccc(C)cc2)c(-c2cc(NC)c(=O)n(C)c2)c1 [Compound 6, N-(3-(1-methyl-5-(methylamino)-6-oxo-1,6-dihydropyridin-3-yl)-4-(p-tolyloxy)phenyl)acrylamide]	120 nM
C=CS(=O)(=O)Nc1ccc(Oc2ccc(C)cc2)c(-c2cn(C)c(=O)c3ccccc23)c1 [Compound 13, N-(3-(2-methyl-1-oxo-1,2-dihydroisoquinolin-4-yl)-4-(p-tolyloxy)phenyl)ethenesulfonamide]	24 nM
C=CS(=O)(=O)Nc1ccc(OC)c(-c2cc(NC)c(=O)n(C)c2)c1 [Compound 20, N-(4-methoxy-3-(1-methyl-5-(methylamino)-6-oxo-1,6-dihydropyridin-3-yl)phenyl)ethenesulfonamide]	3860 nM
C=CC(=O)N(C)c1ccc(Oc2ccc(F)cc2F)c(-c2cn(C)c(=O)c3ccccc23)c1 [Compound 396, N-(4-(2,4-difluorophenoxy)-3-(2-methyl-1-oxo-1,2-dihydroisoquinolin-4-yl)phenyl)-N-methylacrylamide]	298 nM
C=CS(=O)(=O)Nc1ccc(Oc2ccc(F)cc2F)c(-c2cn(C)c(=O)c3c2CCNC3)c1 [Compound 14, N-(4-(2,4-difluorophenoxy)-3-(2-methyl-1-oxo-1,2,5,6,7,8-hexahydro-2,7-naphthyridin-4-yl)phenyl)ethenesulfonamide]	> 10000 nM
C=CC(=O)N(C)c1ccc(Oc2ccc(F)cc2F)c(-c2cc(NC)c(=O)n(C)c2)c1 [Compound 394, N-(4-(2,4-difluorophenoxy)-3-(1-methyl-5-(methylamino)-6-oxo-1,6-dihydropyridin-3-yl)phenyl)-N-methylacrylamide]	134 nM
C=CC(=O)Nc1ccc(Oc2ccc(F)cc2)c(-c2cn(C(C)C)c(=O)c3ccccc23)c1 [Compound 28, N-(4-(4-fluorophenoxy)-3-(2-isopropyl-1-oxo-1,2-dihydroisoquinolin-4-yl)phenyl)acrylamide]	17900 nM
C=CS(=O)(=O)Nc1ccc(Oc2ccc(F)cc2F)c(-c2cnc(=O)n(C)c2)c1 [Compound 19, N-(4-(2,4-difluorophenoxy)-3-(1-methyl-2-oxo-1,2-dihydropyrimidin-5-yl)phenyl)ethenesulfonamide]	1450 nM
C=CS(=O)(=O)Nc1ccc(Oc2ccc(F)cc2F)c(-c2c[nH]c(=O)c3ccccc23)c1 [Compound 18, N-(4-(2,4-difluorophenoxy)-3-(1-oxo-1,2-dihydroisoquinolin-4-yl)phenyl)ethenesulfonamide]	> 10000 nM
C=CS(=O)(=O)Nc1ccc(Nc2ccc(F)cc2F)c(-c2cc(NC)c(=O)n(C)c2)c1 [Compound 21, N-(4-(2,4-difluorophenylamino)-3-(1-methyl-5-(methylamino)-6-oxo-1,6-dihydropyridin-3-yl)phenyl)ethenesulfonamide]	11 nM
C=CC(=O)Nc1cccc(Oc2ccc(F)cc2)c1-c1cc(NC)c(=O)n(C)c1 [Compound 23, N-(3-(4-fluorophenoxy)-2-(1-methyl-5-(methylamino)-6-oxo-1,6-dihydropyridin-3-yl)phenyl)acrylamide]	> 10000 nM
C=CC(=O)n1cc(-c2cc(NS(=O)(=O)CC)ccc2Oc2ccc(F)cc2F)c2ccccc2c1=O [Compound 662, N-(3-(2-acryloyl-1-oxo-1,2-dihydroisoquinolin-4-yl)-4-(2,4-difluorophenoxy)phenyl)ethanesulfonamide]	> 10000 nM
C=CC(=O)Nc1ccc(Oc2ccc(Cl)c(F)c2)c(-c2cn(C)c(=O)c3ccccc23)c1 [Compound 32, N-(4-(4-chloro-3-fluorophenoxy)-3-(2-methyl-1-oxo-1,2-dihydroisoquinolin-4-yl)phenyl)acrylamide]	717 nM
C=CS(=O)(=O)Nc1ccc(Oc2ccc(C)cc2)c(-c2cc(NC)c(=O)n(C)c2)c1 [Compound 4, N-(3-(1-methyl-5-(methylamino)-6-oxo-1,6-dihydropyridin-3-yl)-4-(p-tolyloxy)phenyl)ethenesulfonamide]	22 nM
C=CS(=O)(=O)Nc1ccc(Oc2ccc(F)cc2F)c(-c2c[nH]c(=O)c(NC)c2)c1 [Compound 22, N-(4-(2,4-difluorophenoxy)-3-(5-(methylamino)-6-oxo-1,6-dihydropyridin-3-yl)phenyl)ethenesulfonamide]	3850 nM
C=CS(=O)(=O)Nc1ccc(Oc2ccc(F)cc2)c(-c2cn(C)c(=O)c3ccccc23)c1 [Compound 11, N-(4-(4-fluorophenoxy)-3-(2-methyl-1-oxo-1,2-dihydroisoquinolin-4-yl)phenyl)ethenesulfonamide]	14 nM

Structure (SMILES)	IC50
C=CC(=O)Nc1ccc(Oc2ccc(C)cc2)c(-c2cn(C)c(=O)c3ccccc23)c1 [Compound 25, N-(3-(2-methyl-1-oxo-1,2-dihydroisoquinolin-4-yl)-4-(p-tolyloxy)phenyl)acrylamide]	264 nM
C=CC(=O)Nc1ccc(Nc2c(F)cccc2F)c(-c2cn(C)c(=O)c3ccccc23)c1 [Compound 319, N-(4-(2,6-difluorophenylamino)-3-(2-methyl-1-oxo-1,2-dihydroisoquinolin-4-yl)phenyl)acrylamide]	1800 nM
C=CC(=O)Nc1ccc(Oc2ccc(F)cc2F)c(-c2cn(C)c(=O)c3ccccc23)c1 [Compound 9, N-(4-(2,4-difluorophenoxy)-3-(2-methyl-1-oxo-1,2-dihydroisoquinolin-4-yl)phenyl)acrylamide]	319 nM
C=CS(=O)(=O)Nc1ccc(Oc2ccc(OC)cc2)c(-c2cc(NC)c(=O)n(C)c2)c1 [Compound 8, N-(4-(4-methoxyphenoxy)-3-(1-methyl-5-(methylamino)-6-oxo-1,6-dihydropyridin-3-yl)phenyl)ethenesulfonamide]	17 nM
C=CC(=O)Nc1ccc(Nc2ccc(F)cc2F)c(-c2cc(NC)c(=O)n(C)c2)c1 [Compound 288, N-(4-(2,4-difluorophenylamino)-3-(1-methyl-5-(methylamino)-6-oxo-1,6-dihydropyridin-3-yl)phenyl)acrylamide]	889 nM
C=CC(=O)Nc1ccc(Oc2ccc(Cl)cc2)c(-c2cn(C)c(=O)c3ccccc23)c1 [Compound 31, N-(4-(4-chlorophenoxy)-3-(2-methyl-1-oxo-1,2-dihydroisoquinolin-4-yl)phenyl)acrylamide]	413 nM
Cc1cccc(C)c1Oc1ccc(NC(=O)/C=C/CN(C)C)cc1-c1cn(C)c(=O)c2ccccc12 [Compound 410, (E)-4-(dimethylamino)-N-(4-(2,6-dimethylphenoxy)-3-(2-methyl-1-oxo-1,2-dihydroisoquinolin-4-yl)phenyl)but-2-enamide]	758 nM
C=CC(=O)Nc1ccc(Oc2ccc(F)cc2F)c(-c2nn(C)c(=O)cc2OC)c1 [Compound 403, N-(4-(2,4-difluorophenoxy)-3-(4-methoxy-1-methyl-6-oxo-1,6-dihydropyridazin-3-yl)phenyl)acrylamide]	206 nM
C=CC(=O)Nc1ccc(Nc2ccc(C)cc2)c(-c2cn(C)c(=O)c3ccccc23)c1 [Compound 309, N-(3-(2-methyl-1-oxo-1,2-dihydroisoquinolin-4-yl)-4-(p-tolylamino)phenyl) acrylamide]	2120 nM
C=CC(=O)Nc1ccc(Oc2ccc(OC)cc2)c(-c2cc(NC)c(=O)n(C)c2)c1 [Compound 5, N-(4-(4-methoxyphenoxy)-3-(1-methyl-5-(methylamino)-6-oxo-1,6-dihydropyridin-3-yl)phenyl)acrylamide]	142 nM
CC#CC(=O)Nc1ccc(Oc2ccc(F)cc2F)c(-c2cn(C)c(=O)c3ccccc23)c1 [Compound 393, N-(4-(2,4-difluorophenoxy)-3-(2-methyl-1-oxo-1,2-dihydroisoquinolin-4-yl)phenyl)but-2-ynamide]	261 nM
C=CS(=O)(=O)Nc1ccc(Oc2ccc(F)cc2)c(-c2cc(NC)c(=O)n(C)c2)c1 [Compound 7, N-(4-(4-fluorophenoxy)-3-(1-methyl-5-(methylamino)-6-oxo-1,6-dihydropyridin-3-yl)phenyl)ethenesulfonamide]	24 nM
C=CS(=O)(=O)N(C)c1ccc(Oc2ccc(F)cc2F)c(-c2cc(NC)c(=O)n(C)c2)c1 [Compound 15, N-(4-(2,4-difluorophenoxy)-3-(1-methyl-5-(methylamino)-6-oxo-1,6-dihydropyridin-3-yl)phenyl)-N-methylethenesulfonamide]	34 nM
C=CS(=O)(=O)Nc1ccc(Oc2ccc(F)cc2F)c(-c2cn(C)c(=O)c3ccccc23)c1 [Compound 10, N-(4-(2,4-difluorophenoxy)-3-(2-methyl-1-oxo-1,2-dihydroisoquinolin-4-yl)phenyl)ethenesulfonamide]	56 nM
C=CC(=O)Nc1ccc(Oc2ccc(F)cc2F)c(-c2cn(C)c(=O)c3c2OCC(=O)N3)c1 [Compound 404, N-(4-(2,4-difluorophenoxy)-3-(6-methyl-3,5-dioxo-3,4,5,6-tetrahydro-2H-pyrido[4,3-b][1,4]oxazin-8-yl)phenyl)acrylamide]	1830 nM
C=CC(=O)Nc1ccc(OC(C)C)c(-c2cc(NC)c(=O)n(C)c2)c1 [Compound 24, N-(4-isopropoxy-3-(1-methyl-5-(methylamino)-6-oxo-1,6-dihydropyridin-3-yl)phenyl)acrylamide]	779 nM
